Test results as given in patent publication US20130224234A1, “TTLL4 PEPTIDES AND VACCINES CONTAINING THE SAME” (Onco Therapy Science, Inc., priority 2010, published 2013).
“Also recorded” adds a separate entry of the source.

What was measured:
[1] = test system: COS7 cells transfected with TTLL4 and HLA-A*0201; assay: Specific CTL activity against target cells expressing TTLL4 and HLA-A*0201; type: cell-based, African green monkey; conditions: for Specific CTL activity against COS7 cells transfected with both TTLL4 and HLA-A*0201: CTL clone (9-805) or CTL line (9-66) established with peptide; for Specific CTL activity against control COS7 cells expressing either HLA-A*0201 or TTLL4: controls: COS7 transfected with only full length TTLL4 or only HLA-A*0201
Excerpt: The cDNA encoding an open reading frame of target genes or HLA-A*0201 was amplified by PCR. The PCR-amplified product was cloned into a vector. The plasmids were transfected into COST, which is the target genes and HLA-A*0201-null cell line, using lipofectamine 2000 (Invitrogen) according to the manufacturer's recommended procedures. After 2 days from transfection, the transfected cells were harvested with versene (Invitrogen) and used as the target cells (5×10^4 cells/well) for CTL activity assay.
The established CTL lines and clones raised against each peptide were examined for the ability to recognize target cells that express TTLL4 and HLA-A*0201 molecule. […] COS7 cells transfected with either full length of TTLL4 or HLA-A*0201 were prepared as the controls.

peptide-pulsed T2 cells [2] = assay: IFN-gamma ELISA assay of CTL clones (HLA-A*0201); type: cell-based, human; conditions: CTL clones by limiting dilution, target cells pulsed with peptide vs control
Description: The dilutions were made to have 0.3, 1, and 3 CTLs/well in 96 round-bottomed micro titer plate (Nalge Nunc International). CTLs were cultured with 1×10^4 cells/well of 2 kinds of human B-lymphoblastoid cell lines, 30 ng/ml of anti-CD3 antibody, and 125 U/ml of IL-2 in a total of 150 micro-l/well of AIM-V Medium containing 5% AS. 50 micro-l/well of IL-2 were added to the medium 10 days later so to reach a final concentration of 125 U/ml IL-2. CTL activity was tested on the 14th day, and CTL clones were expanded using the same method as described above (Uchida N et al., Clin Cancer Res 2004, 10(24): 8577-86; Suda T et al., Cancer Sci 2006, 97(5): 411-9; Watanabe T et al., Cancer Sci 2005, 96(8): 498-506).
(§1) Specifically, peptide-pulsed T2 (1×10^4/well) was prepared as stimulator cells. Cultured cells in 48 wells were used as responder cells. IFN-gamma ELISPOT assay and IFN-gamma ELISA assay were performed under manufacture procedure.
(§2) CTL activity of these CTL lines was determined by IFN-gamma ELISA assay (FIG. 6a-d). […] Furthermore, the CTL clones were established by limiting dilution from the CTL lines as described in “Materials and Methods”, and IFN-gamma production from the CTL clones against target cells pulsed peptide was determined by IFN-gamma ELISA assay.

peptide-pulsed T2 cells [3] = assay: In vitro CTL induction, IFN-gamma ELISPOT assay (HLA-A*0201); type: cell-based, human; conditions: CTLs induced with peptide from HLA-A*0201 positive donor, peptide-pulsed T2 vs control
Excerpt: Monocyte-derived dendritic cells (DCs) were used as antigen-presenting cells to induce cytotoxic T lymphocyte (CTL) responses against peptides presented on human leukocyte antigen (HLA). DCs were generated in vitro as described elsewhere (Nakahara S et al., Cancer Res 2003, 63(14): 4112-8). Specifically, peripheral blood mononuclear cells isolated from a normal volunteer (HLA-A*0201 positive) by Ficoll-Plaque (Pharmacia) solution were separated by adherence to a plastic tissue culture dish (Becton Dickinson) so as to enrich them as the monocyte fraction. The monocyte-enriched population was cultured in the presence of 1000 U/ml of granulocyte-macrophage colony-stimulating factor (R&D System) and 1000 U/ml of interleukin (IL)-4 (R&D System) in AIM-V Medium (Invitrogen) containing 2% heat-inactivated autologous serum (AS). After 7 days of culture, the cytokine-induced DCs were pulsed with 20 micro-g/ml of each of the synthesized peptides in the presence of 3 micro-g/ml of beta 2-microglobulin for 3 hr at 37 degrees C. in AIM-V Medium. The generated cells appeared to express DC-associated molecules, such as CD80, CD83, CD86 and HLA class II, on their cell surfaces (data not shown). These peptide-pulsed DCs were then inactivated by X-irradiation (20 Gy) and mixing at a 1:20 ratio with autologous CD8+ T cells, obtained by positive selection with CD8 Positive Isolation Kit (Dynal). These cultures were set up in 48-well plates (Corning); each well contained 1.5×10^4 peptide-pulsed DCs, 3×10^5 CD8+ T cells and 10 ng/ml of IL-7 (R&D System) in 0.5 ml of AIM-V/2% AS medium. Three days later, these cultures were supplemented with IL-2 (CHIRON) to a final concentration of 20 IU/ml. On day 7 and 14, the T cells were further stimulated with the autologous peptide-pulsed DCs. The DCs were prepared each time by the same way described above. CTL was tested against peptide-pulsed T2 cells after the 3rd round of peptide stimulation on day 21 (Tanaka H et al., Br J Cancer 2001, 84(1): 94-9; Umano Y et al., Br J Cancer 2001, 84(8): 1052-7; Uchida N et al., Clin Cancer Res 2004, 10(24): 8577-86; Suda T et al., Cancer Sci 2006, 97(5): 411-9; Watanabe T et al., Cancer Sci 2005, 96(8): 498-506).
as §1
CTLs for those peptides derived from TTLL4 were generated according to the protocols as described in “Materials and Methods”.

peptide-pulsed T2 cells [4] = assay: IFN-gamma ELISA assay of CTL lines (HLA-A*0201); type: cell-based, human; conditions: CTL lines stimulated with peptide, target cells pulsed with peptide vs without peptide pulse
Description: CTLs were expanded in culture using the method similar to the one described by Riddell et al. (Walter E A et al., N Engl J Med 1995, 333(16): 1038-44; Riddell S R et al., Nat Med 1996, 2(2): 216-23). A total of 5×10^4 CTLs were suspended in 25 ml of AIM-V/5% AS medium with 2 kinds of human B-lymphoblastoid cell lines, inactivated by Mitomycin C, in the presence of 40 ng/ml of anti-CD3 monoclonal antibody (Pharmingen). One day after initiating the cultures, 120 IU/ml of IL-2 were added to the cultures. The cultures were fed with fresh AIM-V/5% AS medium containing 30 IU/ml of IL-2 on days 5, 8 and 11 (Tanaka H et al., Br J Cancer 2001, 84(1): 94-9; Umano Y et al., Br J Cancer 2001, 84(8): 1052-7; Uchida N et al., Clin Cancer Res 2004, 10(24): 8577-86; Suda T et al., Cancer Sci 2006, 97(5): 411-9; Watanabe T et al., Cancer Sci 2005, 96(8): 498-506).
as §1, §2

Sequence: FMHLTNYSV [SEQ ID NO: 39]
- Specific CTL activity against COS7 cells transfected with both TTLL4 and HLA-A*0201 ([1]; listed as TTLL4-A02-9-805): specific CTL activity; also recorded: potent CTL activity
- Specific CTL activity against control COS7 cells expressing either HLA-A*0201 or TTLL4 [1]: no significant specific CTL activity was detected
- IFN-gamma production of CTL clones (ELISA) (peptide-pulsed T2 cells [2]; listed as TTLL4-A02-9-805): Potent IFN-gamma productions
- Peptide specific CTL activity (IFN-gamma production, ELISPOT) (peptide-pulsed T2 cells [3]; listed as TTLL4-A02-9-805): potent IFN-gamma production; also recorded: significant and specific CTL activity
- IFN-gamma production of CTL lines (ELISA) (peptide-pulsed T2 cells [4]): potent IFN-gamma production

Sequence: GLGPGLLGV [SEQ ID NO: 44]
- Specific CTL activity against COS7 cells transfected with both TTLL4 and HLA-A*0201 ([1]; listed as TTLL4-A02-9-66): specific CTL activity; also recorded: potent CTL activity
- Specific CTL activity against control COS7 cells expressing either HLA-A*0201 or TTLL4 [1]: no significant specific CTL activity was detected
- Peptide specific CTL activity (IFN-gamma production, ELISPOT) (peptide-pulsed T2 cells [3]; listed as TTLL4-A02-9-66): potent IFN-gamma production; also recorded: significant and specific CTL activity
- IFN-gamma production of CTL lines (ELISA) (peptide-pulsed T2 cells [4]): potent IFN-gamma production

Sequence: ALIYSLFPNV [SEQ ID NO: 59]
- IFN-gamma production of CTL clones (ELISA) (peptide-pulsed T2 cells [2]; listed as TTLL4-A02-10-574): Potent IFN-gamma productions
- Peptide specific CTL activity (IFN-gamma production, ELISPOT) (peptide-pulsed T2 cells [3]; listed as TTLL4-A02-10-574): potent IFN-gamma production; also recorded: significant and specific CTL activity
- IFN-gamma production of CTL lines (ELISA) (peptide-pulsed T2 cells [4]): potent IFN-gamma production

Sequence: FMWPNSTPV [SEQ ID NO: 38]
- IFN-gamma production of CTL clones (ELISA) (peptide-pulsed T2 cells [2]; listed as TTLL4-A02-9-222): Potent IFN-gamma productions
- Peptide specific CTL activity (IFN-gamma production, ELISPOT) (peptide-pulsed T2 cells [3]; listed as TTLL4-A02-9-222): potent IFN-gamma production; also recorded: significant and specific CTL activity
- IFN-gamma production of CTL lines (ELISA) (peptide-pulsed T2 cells [4]): potent IFN-gamma production
